Laboratory results from patent publication US3947408A, “Pyrrolo-benzodiazepines, method of preparation and method of use” (American Cyanamid Company, priority 1974, dated 1976).
Where a name gives a salt, the structure may show the parent alone.

Test system: clonic seizures caused by pentylenetetrazole
Test: Protection against clonic seizures caused by pentylenetetrazole in rats (oral)
Assay type: in vivo
Settings: Rattus norvegicus, rats (at least 5 per group), 2% starch vehicle, pentylenetetrazole 21 to 23 mg./kg. intravenously at estimated time of peak effect, protection of 50% of animals, read-out: MEDIAN EFFECTIVE ORAL DOSE ED50
Procedure: The anti-anxiety properties of the compounds of the present invention have been established in a test which indicates anxiolytic activity by a measure of protection from convulsions resulting from the administration of pentylenetetrazole. Graded dose levels of the compounds of this invention are administered orally, in a 2% starch vehicle, to groups of at least 5 rats. At the estimated time of peak effect, the rats are treated intravenously with pentylenetetrazole at a dose of 21 to 23 mg./kg. of body weight. This dose is estimated to cause clonic seizures in 99% of unprotected rats. The effective dose of the test compound for protection of 50% of the animals is calculated by the method of D. H. Finney in Statistical Methods in Biological Assay, Second Edition, Hafner Publishing Co., New York, 1964, pp. 456- 457. Representative results are given in the table which follows in comparison with Librium (chlordiazepoxide) or Valium (diazepam), all of which were tested in exactly the same manner. It has been reported [R. T. Hill and D. H. Tedeschi, "Animal Testing and Screening Procedures in Evaluating Psychotropic Drugs" in An Introduction to Psychopharmacology, Eds. R. R. Rech and K. E. Moore, Raven Press, New York, pp. 237-288 (1971)] that there is a high degree of correlation between antagonism of pentylenetetrazole seizures in rats and antianxiety effects in higher warm-blooded animals.

Q: For `CN1C(=O)CN=C(c2ccccc2)c2cc(Cl)ccc21` [Valium (diazepam), diazepam, reference compound], which ED50 is on record?
A: 1.8 mg/kg

Q: How did the ED50 turn out when `Cc1ccc2c(c1)CN1CCC[C@H]1C(=O)N2C` [Dextro 7,10-dimethyl-1,2,3,5,10,11a-hexahydro-11H-pyrrolo[2,1-c][1,4]benzodiazepin-11-one hydrochloride] was run?
A: 32 mg/kg

Q: With `CN1C(=O)[C@@H]2CCCN2Cc2cc(Cl)ccc21` [Dextro 7-chloro-1,2,3,5,10,11a-hexahydro-10-methyl-11H-pyrrolo[2,1-c][1,4]benzodiazepin-11-one hydrochloride] as the compound, how does the ED50 read?
A: 80 mg/kg

Q: For `CN1C(=O)C2CCCN2Cc2cc(Cl)ccc21` (racemic) [Racemic 7-chloro-1,2,3,5,10,11a-hexahydro-10-methyl-11H-pyrrolo[2,1-c][1,4]benzodiazepin-11-one hydrochloride], which ED50 is on record?
A: 91 mg/kg

Q: How did the ED50 turn out when `CN1C(=O)C2CCCN2Cc2ccccc21` (racemic) [Racemic 1,2,3,5,10,11a-hexahydro-10-methyl-11H-pyrrolo[2,1-c][1,4]benzodiazepin-11-one hydrochloride] was run?
A: 66 mg/kg

Q: With `CNC1=Nc2ccc(Cl)cc2C(c2ccccc2)=[N+]([O-])C1` [Librium (chlordiazepoxide), chlordiazepoxide, reference compound] as the compound, how does the ED50 read?
A: 2.5 mg/kg

Q: `CN1C(=O)[C@@H]2CCCN2Cc2ccccc21` [Dextro 1,2,3,5,10,11a-hexahydro-10-methyl-11H-pyrrolo[2,1-c][1,4]-benzodiazepin-11-one hydrochloride] was tested. Which ED50 did it give?
A: 15 mg/kg
